Data from the supplement of paper PMC4862054.

Legend:
Hs578T [1] = assay: normalised response (% of control), CellTiter-Glo; higher = more viable cells (100 = DMSO, 0 = benzethonium chloride kill control); conditions: incubation time: 72 h
How it was run: (§1)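 Plates were normalised with 0.1 % DMSO as 100 and a positive kill control as 0. Breast cancer cell lines in 20 µl suspension had been seeded into 384-well plates with compound at 5 concentrations in 10-fold steps over a compound-specific 10,000-fold range, incubated 72 h, and read for CellTox Green fluorescence (485/520 nm) followed by CellTiter-Glo luminescence. Each value is the normalised signal at a single concentration.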

SK-BR-3 [2] = assay: as above; conditions: incubation time: 72 h
How it was run: as §1

CAL-51 = assay: as above; conditions: incubation time: 72 h
How it was run: as §1

CAL-120 [3] = assay: as above; conditions: incubation time: 72 h
How it was run: as §1

HCC1599 = assay: as above; conditions: incubation time: 72 h
How it was run: as §1

BT-549 [4] = assay: as above; conditions: incubation time: 72 h
How it was run: as §1

HCC1937 = assay: as above; conditions: incubation time: 72 h
How it was run: as §1

CAL-148 = assay: as above; conditions: incubation time: 72 h
How it was run: as §1

MDA-MB-436 [5] = assay: as above; conditions: incubation time: 72 h
How it was run: as §1

CAL-85-1 = assay: as above; conditions: incubation time: 72 h
How it was run: as §1

MFM-223 [6] = assay: as above; conditions: incubation time: 72 h
How it was run: as §1

DU-4475 = assay: as above; conditions: incubation time: 72 h
How it was run: as §1

HCC1143 = assay: as above; conditions: incubation time: 72 h
How it was run: as §1

MCF-10A = assay: as above; conditions: incubation time: 72 h
How it was run: as §1

MDA-MB-468 [7] = assay: as above; conditions: incubation time: 72 h
How it was run: as §1

MDA-MB-453 = assay: as above; conditions: incubation time: 72 h
How it was run: as §1

Hs578T [8] = conditions: 72 h
How it was run: (§2)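 Breast cancer cell lines in 20 µl suspension were seeded onto 384-well plates that already held compound dissolved in 5 µl medium and were incubated for 72 h. Viability was measured by adding 2.5 µl CellTiter-Blue for 2 h at 37 °C and reading fluorescence at 560/590 nm. Each plate was normalised to vehicle and a positive kill control and checked by Z'-factor. EC50 was taken from a fitted percent-inhibition dose-response curve, censored at the highest concentration, and rows with a drug sensitivity score of zero were removed.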

BT-474 = conditions: 72 h
How it was run: as §2

SK-BR-3 [9] = conditions: 72 h
How it was run: as §2

MDA-MB-231 = conditions: 72 h
How it was run: as §2

CAL-120 [10] = conditions: 72 h
How it was run: as §2

BT-549 [11] = conditions: 72 h
How it was run: as §2

MDA-MB-436 [12] = conditions: 72 h
How it was run: as §2

MFM-223 [13] = conditions: 72 h
How it was run: as §2

MDA-MB-468 [14] = conditions: 72 h
How it was run: as §2

| EC50, CellTiter-Blue viability (BT-474) [µM] | EC50, CellTiter-Blue viability (SK-BR-3 [9]) [µM] | EC50, CellTiter-Blue viability (MDA-MB-231) [µM] | EC50, CellTiter-Blue viability (BT-549 [11]) [µM] | EC50, CellTiter-Blue viability (MDA-MB-468 [14]) [µM] | SMILES | normalised response (Hs578T [1]) [%] | normalised response (SK-BR-3 [2]) [%] | normalised response (CAL-51) [%] | normalised response (CAL-120 [3]) [%] | normalised response (HCC1599) [%] | normalised response (BT-549 [4]) [%] | normalised response (HCC1937) [%] | normalised response (CAL-148) [%] | normalised response (MDA-MB-436 [5]) [%] | normalised response (CAL-85-1) [%] | normalised response (MFM-223 [6]) [%] | normalised response (DU-4475) [%] | normalised response (HCC1143) [%] | normalised response (MCF-10A) [%] | normalised response (MDA-MB-468 [7]) [%] | normalised response (MDA-MB-453) [%] | EC50, CellTiter-Blue viability (Hs578T [8]) [µM] | EC50, CellTiter-Blue viability (CAL-120 [10]) [µM] | EC50, CellTiter-Blue viability (MDA-MB-436 [12]) [µM] | EC50, CellTiter-Blue viability (MFM-223 [13]) [µM] |
| --- | --- | --- | --- | --- | --- | --- | --- | --- | --- | --- | --- | --- | --- | --- | --- | --- | --- | --- | --- | --- | --- | --- | --- | --- | --- |
|  |  |  |  |  | N#Cc1ccc(COC[C@H]2O[C@@H](n3c(NCc4ccc(Cl)c(Cl)c4)nc4c(N)ncnc43)[C@H](O)[C@@H]2O)cc1 (1000 nM) | 86.9 | 95.3 | 110 | 101 | 116 | 89.9 | 86.9 | 98.5 | 109 | 107 | 98.9 | 86 | 97.2 | 96.6 | 93.7 | 98.4 |  |  |  |  |
|  |  |  |  |  | COc1cc(OC2CCN(C)CC2)ccc1Nc1ncc2c(n1)n(C1CCCC1)c(=O)n2C [AZ 3146] (1000 nM) | 100 | 74.6 | 74.5 | 98 | 112 | 104 | 97.2 | 94.5 | 110 | 98.2 | 98.2 | 94.6 | 99.2 | 92.5 | 104 | 117 |  |  |  |  |
|  |  |  |  |  | CN(C)c1nc(N(C)C)nc(N(C)C)n1 [Altretamine] (1000 nM) | 110 | 107 | 108 | 99.5 | 118 | 103 | 99.4 | 95.2 | 99.3 | 102 | 103 | 98.9 | 103 | 103 | 107 | 115 |  |  |  |  |
| 1.85 | 7.75 | 4.16 | 5.43 | 5.61 | COC(=O)c1ccc2c(c1)NC(=O)/C2=C(\Nc1ccc(N(C)C(=O)CN2CCN(C)CC2)cc1)c1ccccc1 [BIBF 1120] |  |  |  |  |  |  |  |  |  |  |  |  |  |  |  |  | 7.05 | 3.64 | 9.11 | 0.555 |
|  |  |  |  |  | O=C(/C=C/c1cccc(S(=O)(=O)Nc2ccccc2)c1)NO [Belinostat] (1000 nM) | 50.6 | 15.7 | 31.7 | 39.8 | 44.5 | 59 | 69.9 | 28.5 | 51.9 | 44.5 | 34.2 | 23.1 | 47.3 | 55.6 | 31.8 | 14.4 |  |  |  |  |
|  |  |  |  |  | O=P1(N(CCCl)CCCl)NCCCO1 (stereo not given) [Cyclophosphamide] |  |  |  |  |  |  |  |  |  |  |  |  |  |  |  |  |  |  | > 40 |  |
|  |  |  |  |  | O=P1(N(CCCl)CCCl)NCCCO1 (stereo not given) [Cyclophosphamide] (4000 nM) | 111 | 107 | 99.4 | 94.4 | 109 | 103 | 99 | 100 | 97.8 | 92.1 | 106 | 104 | 104 | 103 | 92.9 | 111 |  |  |  |  |
|  |  |  |  |  | C=C1C[C@@H]2[C@H](CC[C@]3(C)C(=O)CC[C@@H]23)[C@@]2(C)C=CC(=O)C=C12 [Exemestane] (1000 nM) | 100 | 108 | 80.5 | 102 | 115 | 92.5 | 103 | 97.7 | 102 | 98.3 | 110 | 105 | 107 | 112 | 101 | 105 |  |  |  |  |
|  |  |  |  |  | COc1cc2ncnc(Nc3ccc(F)c(Cl)c3)c2cc1OCCCN1CCOCC1 [Gefitinib] (1000 nM) | 106 | 51.9 | 103 | 103 | 104 | 97.7 | 87.9 | 80 | 103 | 58.4 | 100 | 99.7 | 96.2 | 34.2 | 75.3 | 95.2 |  |  |  |  |
|  |  |  |  |  | O=C(Nc1ccncc1)C(=O)c1cn(Cc2ccc(Cl)cc2)c2ccccc12 [Indibulin] (1000 nM) | 57.8 | 33.2 | 25.5 | 66.9 | 63.1 | 42.8 | 73.9 | 93.2 | 42.2 | 38.3 | 60 | 91.8 | 67.2 | 89.8 | 37.7 | 67.8 |  |  |  |  |
|  |  |  |  |  | NC(=O)c1ccc(I)c([N+](=O)[O-])c1 [Iniparib] (1000 nM) | 94.6 | 78 | 126 | 93.2 | 105 | 101 | 97.7 | 83.3 | 88.2 | 94.5 | 81.3 | 92.3 | 87.7 | 82 | 83.8 | 89.2 |  |  |  |  |
|  |  |  |  |  | CCc1c2c(nc3ccc(OC(=O)N4CCC(N5CCCCC5)CC4)cc13)-c1cc3c(c(=O)n1C2)COC(=O)[C@]3(O)CC [Irinotecan] (1000 nM) | 101 | 78.8 | 96.6 | 83.7 | 109 | 78.2 | 91.8 | 66.3 | 64.5 | 104 | 104 | 82.1 | 88.1 | 88.3 | 82 | 152 |  |  |  |  |
